Data: PMC10372009, “Molecular basis of GDF15 induction and suppression by drugs in cardiomyocytes and cancer cells toward precision medicine” (Scientific Reports, 2023)

Experiments:
BRD4 = test: ChIP-seq of BRD4 bound to putative enhancers near the GDF15 gene locus in AML cell lines; type: cell-based; details: 1 to 1000 nM, reanalysis of previously published ChIP-seq data ref 26
Text: In 50% of NCI-60, we thereby found a correlation between drug-induced GDF15 and BRD4 expression. […]

GDF15 [1] = test: Basal GDF15 gene expression in 21 lung and colorectal cancer cell lines treated with BI 894999 (RNA sequencing, qPCR); type: cell-based, human; details: of 21 treated lung and colorectal cancer cell lines; 10, 35 or 100 nM, 4 h or 24 h
Text: (§1) GDF15 overexpression can be both chemotherapy- and cancer-driven. Various cancer cell types were reported to overexpress GDF15, thereby exacerbating the development of cachexia. Whilst a personalized selection of chemotherapeutic agents has the potential to mitigate chemotherapy-driven GDF15 overexpression in cancer cells, it leaves basal overexpression of GDF15 unaffected. […] To test this further, we analyzed our own gene expression data of 21 lung and colorectal cancer cell lines treated with the BET inhibitor BI 894999[26]. […] Additionally, we analyzed fold-changes of GDF11 which is well known for its rejuvenating effect but also associated with cachexia, partially through upregulation of GDF15[19]. […] The more GDF15 expression was reduced, the more GDF11 expression tended to get increased upon BET inhibition in the respective cell lines (Fig. 5A).
(§2) Figure 5 GDF15 gene suppression by BET inhibitors. Effect of BET inhibition on basal GDF15 and GDF11 expression in 21 cancer cell lines and on doxorubicin-induced GDF15 overexpression in hiPSC-CMs. (A) Treatment of cancer cell lines with the BET Inhibitor BI 894999 (Supplementary Table S3). Fold-change of relative gene expression. Normalized gene expression analysis performed using RNA sequencing and qPCR, 95% confidence interval. […]

GDF11 = GDF11 gene expression in 21 lung and colorectal cancer cell lines treated with BI 894999; type: cell-based, human; details: of 21 treated cell lines; 10, 35 or 100 nM, 4 h or 24 h
Text: as §1, §2

GDF15 [2] = test: Doxorubicin-induced GDF15 mRNA expression in hiPSC-CMs, successive treatment with BET inhibitors (qPCR); type: cell-based, human; details: BET inhibitor given subsequently to doxorubicin
Text: (§3) Host cells are known to contribute to elevated GDF15 levels in cachexia patients when exposed to drug toxicity. […] We plotted GDF15 fold-changes against the respective reported half maximal inhibitory concentrations (IC50) of each BET inhibitor for BRD2, BRD3 and BRD4, whenever available. GDF15 fold-change thereby meant the ratio of GDF15 expression induced by doxorubicin only and doxorubicin combined with BET inhibitor normalized to cell viability.
(§4) Cardiotoxic drug (SCREEN-WELL® Cardiotoxicity library, BML-2850, ENZO) library was prepared by serial dilution of 10 mM stocks in DMSO to 9 different concentrations ranging from 0.001 to 10 mM, which were further diluted into assay plates to final concentrations ranging from 0.001 to 10 µM. […] The final concentration of DMSO for hiPSC-CMs assay was 0.1%. To investigate the influence of BET inhibitor treatment on doxorubicin induced GDF15 mRNA expression, hiPSC-CMs were pre-treated with 20 nM or 200 nM doxorubicin for 48 h and kept in medium without compound for 24 h before 24 h treatment with either 100 nM BI 894999 or 500 nM OTX015. […] Cancer cell lines were treated with 10 nM, 35 nM or 100 nM of BI 894999 for 4 h or 24 h (Supplementary Table S3).
(§5) For GDF15 mRNA quantification, total RNA was isolated from the cells using an RNeasy kit (Qiagen, 74106) to synthesize cDNA using a Taqman Reverse Transcription kit (Applied Biosystems, N8080234). Quantitative real-time PCR analysis was performed using QuantiNova SYBR Green PCR Kit (Qiagen, 208052) on a CFX96 Real-Time System (Bio-Rad) under the following amplification conditions: 95 °C for 2 min followed by 40 cycles of 95 °C for 5 s and 60 °C for 10 s. The primer sequences are GDF15-F: 5′-[…]-3′, GDF15-R: 5′-[…]-3′, ACTB-F: 5′-[…]-3′ and ACTB-R: 5′-[…]-3′. PCR data were analyzed using a modified relative expression software tool (REST) and the expression level of GDF15 gene was normalized to that of β-actin.

GDF15 [3] = test: Doxorubicin-induced GDF15 secretion in hiPSC-CMs, simultaneous treatment with BET inhibitors (ELISA); type: cell-based, human; details: simultaneous 100 nM doxorubicin and 0.1 to 1000 nM BET inhibitor, 48 h
Text: as §3, §4
as §5, with “β-actin. For secreted GDF15 protein quantification, cell culture medium was collected after drug treatment and stored at − 20 °C until ELISA was performed using Human GDF-15 ELISA Kit (Abcam, ab155432) according to the manufacturer’s instruction. Resulting GDF15 concentrations were normalized to non-treated control and respective relative cell viability.” for “β-actin.”
Supplementary Figure S6. (A) Fold-change of GDF15 secretion by hiPSC-CMs after simultaneous
treatment with doxorubicin and seven BET Inhibitors for 48 h. Normalized to cell viability and non-treated […]

cancer-driven cachexia = test system: cancer-driven cachexia; parameters: method as in PMID 29167426; details: mice; cited from earlier work

Row | Compound | BRD4 bound to putative enhancers in close vicinity to the GDF15 gene locus (BRD4) | number of cell lines with significantly reduced GDF15 expression (GDF15 [1]) | number of cell lines with increased GDF11 expression (GDF11) | effect on doxorubicin-induced GDF15 overexpression (mRNA) (GDF15 [2]) | effect on doxorubicin-induced GDF15 overexpression (secretion) (GDF15 [3]) | effect on cancer-driven cachexia (cancer-driven cachexia)
1 | CNc1nc(-c2nc3ccc(N4CCN(C)CC4)cc3n2Cc2ccccc2)cn2c(C)nnc12 [BI 894999] | reduction of BRD4 bound to putative enhancers | 9 | 19 | suppressed | – | –
2 | Cc1sc2c(c1C)C(c1ccc(Cl)cc1)=N[C@@H](CC(=O)OC(C)(C)C)c1nnc(C)n1-2 [JQ1] | – | – | – | – | suppressed | counteract cancer-driven cachexia
